Reference: US20240058424A1, “NBP-14 FOR TREATING ALZHEIMER'S ASSOCIATED WITH DOWN'S SYNDROME” (NEURO-BIO LTD, priority 2020, published 2024)
Where “and” joins values, the source holds several entries; their conditions need not be identical. Identical values can stand only once. Like-named read-outs stand apart in the source and are kept apart here. Where a SMILES comes first, the peptide text is derived from it.

Columns and labels:
transgenic Tg-5XFAD mice [1] = experiment: Behavioural scoring of grooming/sitting during NOR procedure; type: in vivo; conditions: chronic treatment, T1 and T2 phase of NOR procedure, 10 min each
Procedure: Grooming/sitting/locomotion was measured on the mice subjected to NOR testing [i.e., Wild Type data included at 14 weeks post treatment].
Behavioural scoring was assessed during the T1 (familiar) and T2 (novel) phase of NOR procedure (over 10 min each phase).

[2] = Blood/brain exposure to NBP-14 after intranasal administration (PK assessment); type: in vivo, mice; conditions: for level at 0.5 h / tissue level at time at 0.5 h: 5XFAD, mouse, inhaled or intranasal; for level at 0.5 h: blood, read-out: Blood Concentration; for tissue level at time at 0.5 h: brain, read-out: Brain Concentration
Procedure: Assessment of PK profile for NBP14, 10mg/kg, to allow PK/PD correlations • Satellite group of mice at T0W and T6W. • Mice from NOR test at T14W.
Group 3 TG NBP14: 5XFAD mice (n=3 for each PK) treated with NBP14 at the dose 10 mg/kg.
After 1 single treatment at the start of treatment (T0W) in a satellite group of mice.
After 6 weeks of treatment (T6W) in a satellite group of mice. The day of PK profile mice were treated with NBP14.
After 14 weeks of treatment (14W) in 2 group of mice from NOR cohorts.
On the day of PK study, mice were treated with NBP14 at 10mg/kg (IN) and blood/brain collected at 30 minutes after treatment.
An additional group of mice was subjected to blood/brain collection for NBP14 exposure without treatment on the same day at the terminal time point, after 14 weeks of treatment, to evaluate an eventual accumulation of test compound (table 1).
The inventors measured the concentration of nasally applied NBP-14 in the blood and the brain of mice, to determine whether NBP-14 was capable of crossing the blood brain barrier when applied intranasally.

phosphorylated Tau = experiment: Brain immunohistochemistry, phosphorylated Tau (AT180, AT8); type: in vivo, mice; conditions: for Intracellular phosphorylated Tau immunoreactivity (AT180): hippocampus and cortex of 5XFAD mice
Procedure: (§1) Group 2 TG-VEH: 5xFAD mice treated with vehicle of formulation (saline).
(§2) Group 3 TG-NBP14: 5xFAD mice treated with NBP-14 at the dose 10 mg/kg.
(§3) Histological Time-Points: • After 1 single treatment at the start of treatment, in a satellite group of mice (T0W). • After 6 weeks of treatment (T6W) in a satellite group of mice. • After 14 weeks of treatment (14W) in a group of mice from NOR cohorts (analysis ongoing).
(§4) Brain samples from all Tg-5XFAD mice were fixed, cryosectioned and immunostained for detection of amyloid, phosphorylated Tau and gliosis using the antibodies listed in Table 1.
(§5) Serial sections were collected and every sixth section starting at the midline were immunostained for markers of AD pathology. A total of six sections per animal were used for quantitative analysis.
(§6) Having shown the ability of NBP-14 to reverse the cognitive decline observed in Tg-5XFAD mice as discussed above, the inventors then sought to determine the structural or physiological changes occurring in the brains of mice treated with NBP-14. The inventors utilised histological staining of the brain to determine the changes of various brain-located markers (i.e. phosphorylated Tau, NeuN, (3-amyloid, and Ibal) that are associated with cognitive decline in both 5XFAD mice and also mice that had been treated with NBP-14. These biomarkers were measured after acute treatment with NBP-14 and also six weeks after treatment.

NeuN positive neurons = experiment: Brain immunohistochemistry, neuronal cell count (NeuN); type: in vivo, mice; conditions: cortex and hippocampus
Procedure: as §1, §2, §3, §4, §5
(§7) Having shown the ability of NBP-14 to reverse the cognitive decline observed in Tg-5XFAD mice as discussed above, the inventors then sought to determine the structural or physiological changes occurring in the brains of mice treated with NBP-14. […]

β-amyloid = experiment: Brain immunohistochemistry, β-amyloid (6E10 antibody); type: in vivo, mice; conditions: for Mean intensity of β-amyloid (6E10) compared to vehicle: 6 weeks of treatment
Procedure: as §1, §2, §3, §4, §5, §6

5xFAD mice = experiment: Clinical signs during intranasal treatment of 5xFAD mice; type: in vivo; conditions: 30 mg/kg intranasal, dose lowered to 10 mg/kg from 2nd week
Procedure: Intranasal (IN, nose to brain) twice a week for 14 weeks (Volume of administration 10 μL/.

[3] = test system: Iba1 (activated microglia); experiment: Brain immunohistochemistry, gliosis (Iba1-positive cells); type: in vivo, mice
Procedure: as §1, §2, §3, §4, §5, §7

transgenic Tg-5XFAD mice [4] = experiment: Novel Object Recognition (NOR) test for cognitive readout; type: in vivo
Description: Assessment of Novel Object Recognition (NOR) test at the following time points: • T0W, basal NOR behaviour immediately before starting of the experiment. • T6W, 6 weeks after starting of treatment. • T14W, 14 weeks after starting of treatment.
Group 1 WT mice (n=15) used as control animal during the experimental procedure. No subject to treatment.
Group 2 TG VEH: 5XFAD mice (n=14) treated with vehicle of formulation (saline).
Group 3 TG NBP14: 5XFAD mice (n=28) treated with NBP14 at the dose 10 mg/kg.
NOR behavioural assessment time points: • Immediately before start of treatment (T0W) • 6 weeks after start of treatment (T6W) • 14 weeks after start of treatment (T14W)
Behaviour recorded on video for subsequent scoring for the object exploration. Object investigation has been defined as directing the nose towards the object (i.e., sniffing or touching with the nose) at a distance of 2 cm or less. Climbing and sitting on the objects is not considered to be object examination.
A criterion of minimal level of object exploration was used in the study to exclude animals with naturally low levels of spontaneous exploration: mice having a minimal level of object exploration of lOs during the test trail will be included in the study.
Results were expressed as the total time spent (seconds) by animal towards the objects. The recognition index (RI) was also calculated as follows: (time exploring the novel object)/(time exploring novel+familiar)*100.
The inventors utilised a “novel object recognition” test, which measures the difference of the time spent exploring an unknown (i.e. novel) object versus a known or familiar object to determine the ability of mice to discriminate between novel and familiar objections that can be used as in indication of memory. The inventors used this test to determine the ability of NBP-14 to reverse memory decline in the transgenic mouse, Tg 5XFAD, predisposed to develop amyloid precursor protein (APP) and therefore amyloid plaques, and ultimately, dementia.
The inventors then determined the recognition index of mice. A recognition index above 50% reflects the ability of mice to explore an unfamiliar object (novel) than a recently presented object.

[5] = 10 mg/kg, 5XFAD mice, 10 mg/kg intranasal twice a week, T = 14W [terminal], sampling 30 min after administration
[6] = T = 14W [terminal], treated 14 weeks but no treated last day
[7] = acute treatment, cortex and hippocampus, visual inspection

CSCC[C@@H]1NC(=O)[C@H](Cc2ccc(O)cc2)NC(=O)[C@H](CO)NC(=O)[C@H](CO)NC(=O)[C@H](Cc2c[nH]c3ccccc23)NC(=O)[C@H](CCCNC(=N)N)NC(=O)[C@H](Cc2c[nH]cn2)NC(=O)[C@H](Cc2ccccc2)NC(=O)[C@H](CCC(=O)O)NC(=O)[C@H](C)NC(=O)[C@H](CCCCN)NC(=O)[C@H](Cc2c[nH]c3ccccc23)NC(=O)[C@H](Cc2c[nH]cn2)NC(=O)[C@H](C(C)C)NC1=O [NBP-14] (HELM PEPTIDE1{A.E.F.H.R.W.S.S.Y.M.V.H.W.K}$PEPTIDE1,PEPTIDE1,1:R1-14:R2$$$V2.0)
Reduction in sitting behaviour seen in vehicle-treated Tg-5XFAD mice (transgenic Tg-5XFAD mice [1]): reversed
Brain Concentration ([2]; 5XFAD mice, 10 mg/kg intranasal, T = 0 (single treatment), sampling 30 min after administration): bql
level at 0.5 h [2, 5]: 202 ng/mL
level at 0.5 h ([2]; 10 mg/kg, 5XFAD mice, 10 mg/kg intranasal, T = 0 (single treatment), sampling 30 min after administration): 44.5 ng/mL
tissue level at time at 0.5 h ([2]; 10 mg/kg, 5XFAD mice, 10 mg/kg intranasal twice a week, T = 6W [intermediate], sampling 30 min after administration): 19.3 ng/g
tissue level at time at 0.5 h [2, 5]: 53 ng/g
BB Ratio ([2]; T = 14W [terminal], 10 mg/kg intranasal, 30 min after administration, 10 mg/kg): 0.26 and 0.21 and 0.30
Blood Concentration [2, 6]: bql
Brain Concentration [2, 6]: bql
Detection of NBP-14 in the brain ([2]; after acute treatment): no NBP-14 was observed in the brain
Detection of NBP-14 in the brain ([2]; intranasal, after both 6 weeks and 14 weeks of treatment): detected in the brain
Accumulation of the compound ([2]; mice treated for 14 weeks, not treated on the day of blood/brain collection): no accumulation
Intracellular phosphorylated Tau immunoreactivity (AT180) (phosphorylated Tau; 6 weeks treatment): no specific intracellular phosphorylated Tau immunoreactivity was detected
pTau detected with AT8 (pS202/pT205) in non-neuronal (NeuN negative) cells (phosphorylated Tau; 14 weeks chronic treatment, cortex and hippocampus, very low levels seen in vehicle-treated mice): not in mice treated with NBP-14
pTau detection (AT180) (phosphorylated Tau; 14 weeks chronic treatment, hippocampus, cortex, basal forebrain): no pTau (gold) was detected
Intracellular phosphorylated Tau immunoreactivity (AT180) (phosphorylated Tau; acute treatment): no specific intracellular phosphorylated Tau immunoreactivity was detected
Total number or density of NeuN positive neurons compared to vehicle (NeuN positive neurons; 6 weeks of treatment): no differences
Total number or density of NeuN positive neurons compared to vehicle (NeuN positive neurons; acute treatment): no differences
Mean intensity of β-amyloid (6E10) compared to vehicle (β-amyloid; cortex (P<0.05)): significant decrease
Mean intensity of β-amyloid (6E10) compared to vehicle (β-amyloid; hippocampus (P<0.005)): significant decrease
Extracellular amyloid plaques compared to vehicle-treated controls (β-amyloid; 14 weeks, cortex, hippocampus and basal forebrain): significantly reduced
Mean intensity of 6E10 (Aβ) compared to vehicle (β-amyloid; [7]): No differences
Clinical signs (5xFAD mice): relevant clinical sign
Gliosis (Iba1-positive cells) compared to vehicle ([3]; 6 weeks of treatment, hippocampus): significant (P<0.005) decrease
Total number or density of Iba1-positive cells compared to vehicle [3, 7]: no differences
Recognition index (RI) compared to vehicle-treated 5xFAD mice (transgenic Tg-5XFAD mice [4]; 10 mg/kg, terminal time point (14 weeks), n=27): statistical significant difference
Time exploring the novel versus familiar object (transgenic Tg-5XFAD mice [4]; 5XFAD mice, 10 mg/kg intranasal twice a week, 6 weeks after treatment, n=28): no significant difference
Time spent exploring novel object versus familiar object (transgenic Tg-5XFAD mice [4]; 5XFAD mice, 10 mg/kg intranasal twice a week, 14 weeks after treatment, n=27): statistically significant difference
Cognitive performance compared to 5XFAD vehicle-treated mice (transgenic Tg-5XFAD mice [4]; 6 week time point of NOR testing): no statistically significant differences
